{
  "source": "patent US7968556B2",
  "about": "“Heteroaryl compounds, compositions thereof, and methods of treatment therewith” (Signal Pharmaceuticals, LLC, priority 2006, dated 2011)",
  "key": {"mTOR": {"biological_target": "mTOR (Homo sapiens, UniProt P42345)", "test": "mTOR HTR-FRET Assay", "format": "biochemical", "method_in_brief": "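TOR enzyme fraction preincubated 30 min at room temperature with compound, then reaction started with GST-p70S6 kinase fragment substrate (97 nM working stock) plus ATP/Mn2+ and run 2 h at room temperature in Tris pH 7.4 buffer. Stopped with EDTA; phospho-substrate detected by HTRF antibody reagent after 5 h to overnight.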"}, "Syk": {"biological_target": "T1, Syk (Homo sapiens, UniProt P43405)", "T1 construct": "purchased Cama Biosciences (so in the source)", "test": "Syk HTRF Assay", "format": "biochemical", "protocol": "5 μl/well DMSO is added to Column 2 Wells A-0 and 29.5 μl to well P2 of Greiner 384-well polypropylene plate. 20 μl/well DMSO is added to Columns 1 and 3-12.\n25 mM compound solutions are prepared by the addition of 25 μl of 30 mM compound to Column 2 and 0.5 μl 30 mM reference control to well P2.\nSerial dilution is then performed by the following steps: (i) compounds in Column 2 are mixed by pipetting 20 μl up and down 6×; (ii) 10 μl/well compounds in DMSO are transferred from one column to the next column for Columns 2-11; (iii) wells are mixed by pipetting 20 μl up and down 6×; (iv) tips washed 3×25 μl DMSO, 2×25 μl next DMSO.\nThe following buffers are prepared:\nDilution Buffer: 50 mM HEPES pH 7.6; 1 mM DTT; 10 mM MgCl2; 0.01% Triton X100; 0.01% BSA; 0.1 mM EDTA.\nEnzyme Mix in Dilution Buffer: 8.621 ng/ml Syk (Cama Biosciences 08-176).\nStart Mix in Dilution Buffer: 87.5 μM ATP; 80 nM Substrate Peptide (American Peptide Company 332722).\n14.5 μl/well Enzyme Mix or Dilution Buffer (Background Controls) is added to Costar 384-well black plates.\nCompound addition and mixture is performed by the following steps: (i) 0.5 μl/well DMSO/compounds in DMSO transferred from Greiner 384-well polypropylene plate to left half of assay plate containing 14.5 μl/well Enzyme Mix and Dilution Buffer; (ii) Mix by pipetting 10 μl up and down 4×; (iii) tips are washed 4×10 μl in DMSO, 2×20 μl in other DMSO; (iv) steps i-iii are repeated with transfer to right half of assay plate; (v) steps i-iv are repeated with each compound/assay plate until all plates are completed.\n10 μl/well Start Mix is added and incubated at room temperature on shaker for 2 minutes (1 hour total reaction time).\nStop Solution in Dilution Buffer: 120 mM EDTA\nAntibody Mix in Dilution Buffer: 4.86 μg/ml DyLight 647 Streptavidin (Pierce 21824); 1 μg/ml Lance Eu-Anti-Phosphotyrosine (PerkinElmer AD0069).\n5 μl/well[…] is added and incubated at room temperature on shaker for 2 minutes.\n[…] Antibody Mix is added and Incubated at room temperature on shaker for 2 minutes (4 hours to overnight total time).\nPlates are read at 665 nm and 620 nm emission on Analyst GT protocol HTRF_SP_A or EnVision protocol Steve's TR-FRET."}},
  "data": [
    {"smiles": "NC(=O)c1nc(-c2cccnc2)nc2c1[nH]c(=O)n2[C@H]1CC[C@H](O)CC1", "note": "[Compound 50, 9-(trans-4-Hydroxycyclohexyl)-8-oxo-2-(pyridin-3-yl)-8,9-dihydro-7H-purine-6-carboxamide]", "values": [
      {"measurement": "IC50", "setting": "mTOR", "value": "0.1 to 5", "unit": "µM"}
    ]},
    {"smiles": "COc1ccccc1-n1c(=O)[nH]c2c(C(N)=O)nc(-c3ccnc(O)c3)nc21", "note": "[Compound 13, 2-(2-hydroxypyridin-4-yl)-9-(2-methoxyphenyl)-8-oxo-8,9-dihydro-7H-purine-6-carboxamide]", "values": [
      {"measurement": "IC50", "setting": "Syk", "value": "> 30", "unit": "µM"},
      {"measurement": "IC50", "setting": "mTOR", "value": "> 30", "unit": "µM"}
    ]},
    {"smiles": "COc1ccccc1-n1c(=O)[nH]c2c(C(N)=O)nc(-c3ccc(O)cc3)nc21", "note": "[Compound 8, 2-(4-hydroxyphenyl)-9-(2-methoxyphenyl)-8-oxo-8,9-dihydro-7H-purine-6-carboxamide]", "values": [
      {"measurement": "IC50", "setting": "Syk", "value": "> 30", "unit": "µM"},
      {"measurement": "IC50", "setting": "mTOR", "value": "5.1 to 10", "unit": "µM"}
    ]}
  ]
}
